Like-named read-outs stand apart in the source and are kept apart here.
Key:
urethral resistance = assay: Rat urethral resistance (LPP) measured by high speed infusion of saline into the bladder; format: in vivo; details: for LPP Post / LPP Increase / LPP Pre: Table 8, mean ± SEM; for LPP Post: 30 minutes after administration; for LPP Increase: Post minus Pre; for LPP Pre: before administration
Excerpt: The rats were anesthetized with isoflurane. Their spinal cord was transected at the T8-T9 (the eighth thoracic cord—the ninth thoracic cord) level. After opening of the bladder dome, two polyethylene tubes (PE-100) were inserted into the bladder. The incised portion of the bladder was closed with sutures, and the other incisions were also closed. The rats were placed in Bollman cages. The catheter for intravesical pressure measurement was connected to a pressure transducer, while the catheter for saline filling was connected to a syringe filled with Evans Blue-dyed saline. Change in intravesical pressure was recorded using the pressure transducer via an electric signal amplifier and an analog-to-digital converter. After recovery of the animals from anesthesia, the intravesical pressure measurement was started, and saline was infused at a speed of 0.1 mL/sec into the bladder using an infusion pump. The infusion was stopped when the leakage of the saline from the urethral orifice was observed. Immediately thereafter, the bladder was emptied by releasing the pressure. In this operation, the peak of recorded intravesical pressure during the saline infusion was used as LPP in this Example. This measurement was repeated, and the average LPP from the last three measurements was used as the LPP value of the trial. The mean from 2 such trials was used as a Pre value. 0.5% MC was used as the vehicle. […] The difference in LPP from the Pre value (increased amount of LPP) was calculated. Regarding change in LPP before and after drug administration, the differences between the mean values of the drug-treated and vehicle-treated groups were analyzed by the one-tailed Williams' test.

[1] = Body weight of obese rats (DIO-F344) under continuous subcutaneous administration and effective plasma concentration; format: in vivo, rat; details: for Change in body weight (% change): mean ± SEM
Experimental: Forty male DIO-F344 rats bred with high fat diet (42 kcal % fat) were used. On the day before surgery, the rats were grouped on the basis of their body weight. Compound A′ and Compound B′ were each dissolved in saline. Osmotic pumps filled with the Compound A′ or Compound B′ solution were subcutaneously implanted in the rats under isoflurane anesthesia. The body weight just after surgery was used as a Pre value, and the body weight was measured every day until 14 days after surgery. Regarding the averages in the body weight on Day 14, the difference in the mean averages of the drug-treated group and the vehicle-treated group was analyzed by the one-tailed Williams' test.
The average Day 14 plasma concentration from the values of each rat measured in the morning and afternoon was used as a plasma concentration for the animal. The rate of change in body weight was calculated from the values measured just after and 14 days after osmotic pump implantation. The rate (average rate) of change of the vehicle group was subtracted from that of each drug-administered rat to plot the plasma concentration and the change in body weight. The plasma concentration at which the drug lowered the body weight by 3.8% was calculated by linear regression analysis.

anus-closing functions = assay: Rat anus-closing functions (Anal LPP) measured by high speed infusion of saline into the rectum; format: in vivo; details: 1 mg/kg i.v.; 5 minutes after administration; mean ± SEM
Excerpt: (§1) Thirty six female SD rats were used. After overnight fasting, rats were intraperitoneally administered with urethane for anesthesia, and isoflurane inhalation was further added during surgery. The abdomen was incised to expose the rectum, and a small incision of the rectum was made. A polyethylene catheter (SP61, Natsume) was inserted into the rectum through the rectum incision, and the tip of the catheter was positioned around 5 mm from the anal orifice. The other end of the catheter was connected with a pressure transducer and an infusion pump via three-way stopcocks, and the change in pressure in the rectum was measured using the pressure transducer, an electric signal amplifier, and an analog-to-digital converter. For administrating drugs, a polyethylene catheter (SP45, Natsume) was inserted into the femoral vein after exposing the vein by small incision.
After recovery period from surgery, while saline was infused at a speed of 0.1 mL/sec into the rectum using an infusion pump, change in the measured pressure—was observed. The infusion was stopped when the leakage of the saline from the anal orifice was observed. In the procedure, sudden decrease in the pressure was observed during the infusion with the leakage of saline from the anal orifice. The peak value of the pressure recorded in the rectum during the course of the procedures was defined as “an Anal LPP” in this Example. […] The Anal LPP was again measured in the same way 5 minutes after drug administration. The difference in Anal LPP from the Pre value (increased amount of Anal LPP) was calculated. Regarding change in Anal LPP before and after drug administration, the differences between the mean values of the drug-treated and vehicle-treated groups were analyzed by the one-tailed Williams' test or Student's t-test.

[2] = cited from earlier work
[3] = cited from earlier work; remark: listed apart in the source
[4] = system: urethral resistance increasing effect of Compound A′; assay: Influence of antagonists (SB 242084, methiothepin) on urethral resistance increasing effect of Compound A′ in rats; format: in vivo, rat; details: mean ± SEM; for LPP Increase: Post minus Pre; for LPP Pre: before administration
Experimental: Ninety female rats of SD strain were used. […] Isoflurane inhalation was added during the surgery, if necessary. In the experiment with intrathecal administration, the dura mater was exposed by laminectomy and then partially opened by incision, through which a catheter (PE-10) filled with saline was then implanted at the level of the L6-S1 site, followed by the closing of the incision. After opening of the abdomen, a catheter (PE-90) was inserted into the bladder. In order to secure reduced urethral resistance, unilateral nerve to iliococcygeus and pubococcygeus muscles was transected. For intraduodenal administration, another catheter (PE-50) was inserted into the duodenum in advance. The abdominal muscle and skin were each closed with sutures. Two (right and left) sites of abdominal skin near the diaphragm were cut to expose abdominal muscle. The bladder was emptied through the catheter, followed by the injection of 0.2 to 0.3 mL of Evans blue solution. Change in intravesical pressure was recorded using the bladder catheter via a pressure transducer, an electric signal amplifier, and an analog-to-digital converter. While change in intravesical pressure was recorded, the presence or absence of fluid leakage from the urethral orifice was observed under the electrical stimulation of the exposed abdominal muscle using an electrical stimulator and an isolator. […] The peak of the intravesical pressure during the stimulation of the abdominal muscle was measured, and the lowest pressure at which the fluid leakage was observed among the trials was defined as LPP for the electrical abdominal muscle stimulation method. In order to examine whether the urethral resistance increasing effect of Compound A′ is based on its agonistic potency on 5-HT2C receptors, SB 242084, methiothepin, or a vehicle was intravenously administered, and Compound A′ or a vehicle was intraduodenally administered 5 minutes later. SB 242084 was dissolved in a mixed solution of N,N-dimethylacetamide and polyethylene glycol 400 (1:1) and administered at 0.03 mg/0.5 mL/kg, 0.1 mg/0.5 mL/kg and 0.3 mg/0.5 mL/kg. Methiothepin was dissolved in saline and administered at 0.03 mg/0.5 mL/kg. 0.1 mg/0.5 mL/kg and 0.3 mg/0.5 mL/kg. Compound A′ was suspended in 0.5% MC and administered at 3 mg/mL/kg. LPP was measured again 30 minutes after Compound A′ administration. In order to examine where Compound A′ works in the body to increase urethral resistance, the blocking of the effect of Compound A′ was confirmed by blocking the functions of Compound A′ by giving methiothepin at a particular site in the body. Particularly, in the experiment with intrathecal administration, methiothepin or a vehicle was intrathecally administered, and Compound A′ or a vehicle was intraduodenally administered 5 minutes later. Methiothepin was dissolved in saline and 20 μL of the obtained solution was administered. Compound A′ was suspended in 0.5% MC and administered at 3 mg/mL/kg. LPP was measured again 30 minutes after Compound A′ administration.
Regarding change in LPP before and after drug administration, the differences between the mean values of the Compound A′-treated and vehicle-treated groups were analyzed by the Student's t test or the Welch's test. In order to analyze the influence of the antagonists on the effect of Compound A′, the differences between the mean values of the SB 242084- or methiothepin- and Compound A′-administered group and the vehicle- and Compound A′-administered group were analyzed by the one-tailed Williams' test.

[5] = system: anus-closing function increasing effect of Compound A′; assay: Influence of SB 242084 on Compound A′-induced rat anus-closing function increasing effect (Anal LPP); format: in vivo; details: SB242084 0.3 mg/kg i.v. then Compound A′ 1 mg/kg i.v.; 5 minutes after Compound A′; n=9
Experimental: as §1, with “Eighteen” for “Thirty six”, “was” for “was further”
After recovery period from surgery, while saline was infused at a speed of 0.1 mL/sec into the rectum using an infusion pump, change in the measured pressure—was observed. […] The peak value of the pressure recorded in the rectum during the course of the procedures was defined as “an Anal LPP” in this Example. […] The Anal LPP was again measured in the same way 5 minutes after the administration with Compound A′. The difference in Anal LPP from the Pre value (increased amount of Anal LPP) was calculated. […]

[6] = SB 242084 0.03 mg/kg i.v. + Compound A′ 3 mg/kg i.d.
[7] = SB 242084 0.1 mg/kg i.v. + Compound A′ 3 mg/kg i.d.
[8] = SB 242084 0.3 mg/kg i.v. + Compound A′ 0 mg/kg i.d.
[9] = SB 242084 0.3 mg/kg i.v. + Compound A′ 3 mg/kg i.d.

For `C[C@H]1CNCCc2ccc(Cl)cc21` [Compound B′, (R)-8-chloro-1-methyl-2,3,4,5-tetrahydro-1H-3-benzazepine], the “LPP Post” value (urethral resistance; 1 mg/kg p.o.) was 77.0 ± 3.6 cm H2O, the “LPP Increase” value (urethral resistance; 1 mg/kg p.o.) was 9.0 ± 1.9 cm H2O and the “LPP Pre” value (urethral resistance; 1 mg/kg p.o.) was 67.9 ± 2.5 cm H2O. The “LPP Post” value (urethral resistance; 2.5 mg/kg p.o.) was 88.1 ± 3.5 cm H2O, the “LPP Increase” value (urethral resistance; 2.5 mg/kg p.o.) was 19.6 ± 1.7 cm H2O and the “LPP Pre” value (urethral resistance; 2.5 mg/kg p.o.) was 68.5 ± 3.8 cm H2O. For the same molecule, the “LPP Post” value (urethral resistance; 5 mg/kg p.o.) was 85.4 ±4.1 cm H2O, the “LPP Increase” value (urethral resistance; 5 mg/kg p.o.) was 25.1 ± 2.7 cm H2O and the “LPP Pre” value (urethral resistance; 5 mg/kg p.o.) was 60.2 ± 5.1 cm H2O. The “LPP10, the dose that increases LPP by 10 cm H2O” value (urethral resistance; oral administration, high speed saline infusion method) was 1.2 mg/kg, the “Change in body weight (% change)” value ([1]; 0.45 mg/animal/day s.c. osmotic pump, day 3) was −0.9 ± 0.2 % change and the “Change in body weight (% change)” value ([1]; 0.45 mg/animal/day s.c. osmotic pump, day 7) was −1.4 ± 0.5 % change. The “Change in body weight (% change)” value ([1]; 0.45 mg/animal/day s.c. osmotic pump, day 10) was −3.3 ± 0.4 % change, the “Change in body weight (% change)” value ([1]; 0.45 mg/animal/day s.c. osmotic pump, day 14) was −3.7 ± 0.6 % change and the “Change in body weight (% change)” value ([1]; 1.35 mg/animal/day s.c. osmotic pump, day 3) was −1.4 ± 0.3 % change. The “Change in body weight (% change)” value ([1]; 1.35 mg/animal/day s.c. osmotic pump, day 7) was −2.5 ± 0.5 % change, the “Change in body weight (% change)” value ([1]; 1.35 mg/animal/day s.c. osmotic pump, day 10) was −4.6 ± 0.3 % change and the “Change in body weight (% change)” value ([1]; 1.35 mg/animal/day s.c. osmotic pump, day 14) was −5.4 ± 0.2 % change. The “Change in body weight (% change)” value ([1]; 4.5 mg/animal/day s.c. osmotic pump, day 3) was −3.1 ± 0.6 % change, the “Change in body weight (% change)” value ([1]; 4.5 mg/animal/day s.c. osmotic pump, day 7) was −4.8 ± 0.9 % change and the “Change in body weight (% change)” value ([1]; 4.5 mg/animal/day s.c. osmotic pump, day 10) was −7.1 ± 0.7 % change. The “Change in body weight (% change)” value ([1]; 4.5 mg/animal/day s.c. osmotic pump, day 14) was −8.6 ± 1.0 % change, the “plasma concentration at which the drug lowered the body weight by 3.8%” value ([1]; DIO-F344 rats, day 14, vehicle-subtracted, linear regression analysis) was 140 ng/mL and the “Anal LPP Increase” value (anus-closing functions) was 13.8 ± 5.7 cmH2O. For the same molecule, the half-life in blood ([2]; after a single dose of 10 mg) was 11.1 h, the maximum blood concentration ([2]; after a single dose of 10 mg) was 46.0 ng/mL and the maximum blood concentration ([2]; immediate release formulation 10 mg once daily (Blossom trial)) was 40 ng/mL. The “maximum blood concentration (Cmax)” value ([2]; immediate release formulation 10 mg twice daily (Blossom trial)) was 56 ng/mL, the “patients with adverse events” value ([3]; 10 mg bid group) was 57.9% and the subjects with headache ([3]; 10 mg bid group) was 32.5%. For the same molecule, the subjects with nausea ([3]; 10 mg bid group) was 8.8%, the “difference of body weight loss from placebo” value ([3]; 10 mg once daily (QD) (Blossom trial)) was 2.6% and the “weight loss, difference from placebo group” value ([3]; obese patients, 10 mg twice daily (Blossom trial)) was 3.8%.
For `Cc1cc2c(cc1Cl)N(C(=O)Nc1ccc(Oc3cccnc3C)nc1)CC2` [SB 242084], the “LPP Post” value ([4]; SB 242084 0.03 mg/kg i.v. + Compound A′ 3 mg/kg i.d., 30 minutes after Compound A′) was 73.9 ± 8.7 cmH2O, the “LPP Increase” value [4, 6] was 29.9 ± 8.4 cmH2O and the “LPP Pre” value [4, 6] was 44.0 ± 7.4 cmH2O. The “LPP Post” value ([4]; SB 242084 0.1 mg/kg i.v. + Compound A′ 3 mg/kg i.d., 30 minutes after Compound A′) was 57.6 ± 12.2 cmH2O, the “LPP Increase” value [4, 7] was 12.6 ± 6.3 cmH2O and the “LPP Pre” value [4, 7] was 45.0 ± 6.7 cmH2O. For the same molecule, the “LPP Post” value ([4]; SB 242084 0.3 mg/kg i.v. + Compound A′ 0 mg/kg i.d., 30 minutes after i.d. administration) was 49.3 ± 8.7 cmH2O, the “LPP Increase” value [4, 8] was 3.4 ± 4.6 cmH2O and the “LPP Pre” value [4, 8] was 45.9 ± 5.4 cmH2O. The “LPP Post” value ([4]; SB 242084 0.3 mg/kg i.v. + Compound A′ 3 mg/kg i.d., 30 minutes after Compound A′) was 48.0 ± 6.9 cmH2O, the “LPP Increase” value [4, 9] was 3.8 ± 4.4 cmH2O and the “LPP Pre” value [4, 9] was 44.3 ± 7.0 cmH2O. The “Anal LPP Increase” value [5] was -2.6±4.1 cmH2O.

From US20210052600A1, “THERAPEUTIC AGENTS FOR STRESS URINARY INCONTINENCE AND INCOTINENCE OF FECES” (Takeda Pharmaceutical Company Limited, priority 2017, published 2021)
